Laboratory results from the supplement of paper PMC10307832.

What was measured:
Experiment in all cases: relative viability (nuclei count vs DMSO), 5 days (fraction); higher = more cells survive
[1] = compound: COc1cc2c(Oc3ccc4[nH]c(C)cc4c3F)ncnc2cc1OCCCN1CCCC1 [Cediranib] + COc1cccc2cc(-c3nc([C@H]4CC[C@H](C(=O)O)CC4)n4ncnc(N)c34)[nH]c12 [OSI-027] (partner 0.5 µM)
How it was run: (§1)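 One day after seeding in 1536-well plates, lung cancer cell lines were dosed by pin tool. Dosing was either single-drug or a fixed anchor-drug dose plus five library-drug doses (not always all listed) in √10 steps. After 5 days, nuclei were stained in one fix-and-stain step and counted on 4× images, and relative viability is the nuclei count of treated wells over that of vehicle wells, given as the median of duplicate plates.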

[2] = compound: O=C(C[C@H]1NCCC[C@@H]1O)Cn1cnc2cc(Br)c(Cl)cc2c1=O (racemic) [Halofuginone] + CS(=O)(=O)CCNCc1ccc(-c2ccc3ncnc(Nc4ccc(OCc5cccc(F)c5)c(Cl)c4)c3c2)o1 [Lapatinib] (partner 2 µM)
How it was run: as §1

[3] = compound: COc1cc2c(Oc3ccc4[nH]c(C)cc4c3F)ncnc2cc1OCCCN1CCCC1 [Cediranib] + Cc1nc(NC(=O)N2CCC[C@H]2C(N)=O)sc1-c1ccnc(C(C)(C)C(F)(F)F)c1 [Alpelisib] (partner 2 µM)
How it was run: as §1

[4] = compound: Nc1ncn([C@H]2C[C@H](O)[C@@H](CO)O2)c(=O)n1 [Decitabine] + O=C(CCCCCCC(=O)Nc1ccccc1)NO [Vorinostat] (partner 1 µM)
How it was run: as §1

| Cell Line | relative viability ([1]; first compound 0.04 µM) | relative viability ([1]; first compound 0.1265 µM) | relative viability ([1]; first compound 0.4 µM) | relative viability ([1]; first compound 1.265 µM) | relative viability ([1]; first compound 4 µM) | relative viability ([2]; first compound 0.001 µM) | relative viability ([2]; first compound 0.003162 µM) | relative viability ([2]; first compound 0.01 µM) | relative viability ([2]; first compound 0.03162 µM) | relative viability ([2]; first compound 0.1 µM) | relative viability ([3]; first compound 0.04 µM) | relative viability ([3]; first compound 0.4 µM) | relative viability ([3]; first compound 1.265 µM) | relative viability ([3]; first compound 4 µM) | relative viability ([4]; first compound 0.04 µM) | relative viability ([4]; first compound 0.1265 µM) | relative viability ([4]; first compound 0.4 µM) | relative viability ([4]; first compound 1.265 µM) | relative viability ([4]; first compound 4 µM) | relative viability ([3]; first compound 0.1265 µM) |
| --- | --- | --- | --- | --- | --- | --- | --- | --- | --- | --- | --- | --- | --- | --- | --- | --- | --- | --- | --- | --- |
| NCI-H1623 | 0.426 | 0.442 | 0.477 | 0.423 | 0.392 |  |  |  |  |  |  |  |  |  |  |  |  |  |  |  |
| HCC-827 | 0.751 |  | 0.737 | 0.74 | 0.671 | 0.192 | 0.189 | 0.236 | 0.233 | 0.202 | 1.06 | 0.957 | 0.985 | 0.926 | 0.143 | 0.32 | 0.303 | 0.243 | 0.287 |  |
| NCI-H322M | 0.541 | 0.567 | 0.535 | 0.52 | 0.538 | 0.47 | 0.583 | 0.585 | 0.607 | 0.493 | 0.687 | 0.655 | 0.723 | 0.685 | 0.715 | 0.792 | 0.816 | 0.61 | 0.664 | 0.84 |
| ChaGo-K-1 | 0.441 | 0.363 | 0.535 | 0.572 | 0.615 |  |  |  |  |  |  |  |  |  | 0.771 | 0.684 | 0.402 | 0.39 | 0.374 |  |
| BEN | 0.308 |  | 0.28 | 0.311 | 0.286 | 0.782 | 0.881 | 0.861 | 0.588 | 0.443 | 1.17 | 0.906 | 1.04 | 0.953 | 0.664 | 0.623 | 0.451 | 0.488 | 0.435 | 0.814 |
| NCI-H2347 | 0.376 | 0.448 | 0.371 | 0.407 | 0.425 | 1 | 0.853 | 0.906 | 0.918 | 0.65 | 1.15 | 0.919 | 0.975 | 1.12 | 0.522 | 0.542 | 0.521 | 0.379 | 0.424 | 0.997 |
| LOU-NH91 | 0.769 | 0.862 | 0.707 | 0.582 | 0.701 | 0.77 | 0.746 | 0.747 | 0.738 | 0.676 | 0.702 | 0.695 | 0.672 | 0.615 | 0.768 | 0.958 | 0.848 | 0.805 | 0.849 | 0.952 |
| NCI-H2228 | 0.552 | 0.767 | 0.496 | 0.335 | 0.68 | 1.06 | 1.02 | 0.908 | 0.657 | 0.121 | 0.955 | 0.791 | 0.929 | 0.826 | 0.221 | 0.304 | 0.16 | 0.169 | 0.179 | 0.85 |
| NCI-H2342 | 0.615 | 0.671 | 0.659 | 0.549 | 0.508 |  |  |  |  |  |  |  |  |  | 0.755 | 0.798 | 0.728 | 0.542 | 0.522 |  |
| HCC-366 | 0.933 | 0.877 | 0.841 | 0.84 | 1.07 | 1.05 | 1.17 | 0.979 | 1.08 | 0.542 | 0.402 | 0.363 | 0.401 | 0.388 | 0.235 | 0.313 | 0.138 | 0.0554 | 0.0657 | 0.316 |
| NCI-H2405 | 0.648 | 0.606 | 0.617 | 0.52 | 0.622 | 1.14 | 1.01 | 1.02 | 1.02 | 0.861 | 0.815 | 0.631 | 0.77 | 0.758 | 0.765 | 0.878 | 0.894 | 0.561 | 0.395 | 1.07 |
| Calu-6 |  |  |  |  |  | 1.18 | 1 | 1.05 | 0.689 | 0.176 | 1.06 | 0.991 | 0.935 | 1.04 |  |  |  |  |  | 1.01 |
| 201T | 0.945 | 0.841 | 0.671 | 0.717 | 0.692 | 1.02 | 0.97 | 1.05 | 1.04 | 1.04 | 1.03 | 1.04 | 0.992 | 1.03 | 0.939 | 1.01 | 0.952 |  | 0.884 | 1.24 |
| CAL-12T | 0.814 | 0.568 | 0.624 | 0.416 | 0.992 | 0.765 | 0.609 |  | 0.729 | 0.561 | 1.38 | 1.05 | 1.26 | 1.13 | 0.615 | 0.432 | 0.486 | 0.318 | 0.238 | 1.13 |
| HCC-44 |  |  | 0.447 | 0.473 | 0.619 | 1.02 | 1.01 | 0.955 | 0.997 | 0.808 | 0.754 | 0.731 | 0.784 | 0.898 | 1.06 | 0.982 | 0.839 | 0.904 | 0.785 |  |
| NCI-H358 | 0.812 | 0.967 | 0.683 | 0.609 | 0.845 | 0.56 | 0.432 | 0.376 | 0.282 | 0.232 | 1.04 | 0.745 | 0.996 | 0.926 | 0.257 | 0.209 | 0.14 | 0.0806 | 0.0904 | 1.05 |
| SW 900 | 0.712 | 0.642 | 0.504 | 0.59 | 0.69 |  |  |  |  |  |  |  |  |  | 0.333 | 0.42 | 0.33 | 0.193 | 0.286 |  |
| NCI-H2087 | 0.558 | 0.742 | 0.526 | 0.425 | 0.763 | 1.05 | 1.29 | 1.21 | 0.959 | 1.19 | 1.05 | 1.18 | 1.11 | 1.14 | 0.268 | 0.285 | 0.301 | 0.304 | 0.208 | 1.25 |
| COR-L 105 | 0.6 | 0.904 | 0.553 | 0.552 | 0.601 | 0.438 | 0.39 | 0.317 | 0.374 | 0.285 |  | 0.862 | 1.14 | 1.1 | 0.768 | 0.721 | 0.61 | 0.585 | 0.439 | 1.14 |
